In patent US8785655B2, “Ionic liquid solvents” (Dublin City University, priority 2009, dated 2014):
Where a name gives a salt, the structure may show the parent alone. Read-outs that look alike come from different tables or passages of the source.

Tests used:
[1] = tested on: Candida parapsilosis ATCC 22019; assay: In vitro antifungal activity, MIC by microdilution (NCCLS M27-A); conditions: CP
Description: (§2) In vitro antifungal activities of the compounds were evaluated on the collection of fungal strains deposited at the Department of Biological and Medical Sciences, Faculty of Pharmacy, Charles University, Czech Republic. All the isolates were maintained on Sabouraud dextrose agar prior to being tested.
(§3) Minimum inhibitory concentrations (MICs) were determined by the microdilution format of the NCCLS M27-A guidelines. […] RPMI 1640 (Sevapharma, Prague) medium supplemented with L-glutamine and buffered with 0.165 M morpholinepropanesulfonic acid to pH 7.0 was used as the test medium. The wells of the microdilution tray contained 100 μl of the RPMI 1640 medium with 2-fold serial dilutions of the compounds (1000 to 0.24 μmol/l for the new compounds) and 100 μl of inoculum suspension. Fungal inoculum in RPMI 1640 was prepared to give a final concentration of 5×103±0.2 cfu·ml-1. The trays were incubated at 35° C. and MICs were read visually for filamentous fungi and photometrically for yeasts as an optical density (OD) at 540 nm after 24 h and 48 h. The MICs were defined as 80% inhibition of the growth of control. MICs were determined twice and in duplicate. The deviations from the usually obtained were no higher than the nearest concentration value up and down the dilution scale.

[2] = tested on: Pseudomonas aeruginosa CCM 1961; assay: Screen against bacteria, MIC/IC80; format: cell-based; conditions: PA
fungi and bacteria = format: cell-based
Description: All the 12 bromide salts and 12 octylsulfate CILs in the table below were screened against fungi and bacteria.
CILs with bromide as anion have been screened against the following Fungi and bacteria:
. […] MICs were determined twice and in duplicate.

[3] = tested on: Candida albicans ATCC 90028; assay: In vitro antifungal activity, MIC by microdilution (NCCLS M27-A)
[4] = tested on: Klebsiella pneumoniae J 14368/08 ESBL-positive; assay: Screen against bacteria, MIC/IC80; format: cell-based; conditions: KP-E
Candida tropicalis 156 = assay: In vitro antifungal activity, MIC by microdilution (NCCLS M27-A); conditions: CT
Description: as §2, §3

[5] = tested on: Candida albicans ATCC 44859; assay: as above
Candida krusei E28 = assay: as above
Description: All the isolates were maintained on Sabouraud dextrose agar prior to being tested.
as §3

[6] = tested on: Aspergillus fumigatus 231; assay: as above; conditions: AF
Description: as §2, §3

Escherichia coli CCM4517 = assay: Screen against bacteria, MIC/IC80; format: cell-based; conditions: EC
[7] = tested on: Staphylococcus aureus H 5996/08 Methiciline-resistant; assay: Screen against bacteria, MIC/IC80; format: cell-based; conditions: MRSA
[8] = tested on: Staphylococcus epidermidis H 6966/08; assay: Screen against bacteria, MIC/IC80; format: cell-based; conditions: SE
Candida krusei ATCC 6258 = assay: In vitro antifungal activity, MIC by microdilution (NCCLS M27-A)
Absidia corymbifera 272 = assay: as above; conditions: AC
[9] = tested on: Trichophyton mentagrophytes 445; assay: as above; conditions: TM
[10] = tested on: Staphylococcus aureus CCM 4516/08; assay: Screen against bacteria, MIC/IC80; format: cell-based; conditions: SA
[11] = tested on: Candida lusitaniae 2446/l; assay: In vitro antifungal activity, MIC by microdilution (NCCLS M27-A); conditions: CL
[12] = tested on: Klebsiella pneumoniae D 11750/08; assay: Screen against bacteria, MIC/IC80; format: cell-based; conditions: KP
Candida glabrata 20/l = assay: In vitro antifungal activity, MIC by microdilution (NCCLS M27-A); conditions: CG
[13] = tested on: Enterococcus sp. J 14365/08; assay: Screen against bacteria, MIC/IC80; format: cell-based; conditions: EF
Pseudomonas Putida (CP1) = assay: Toxicity of pyridinium CILs, IC50 against bacteria strains; format: cell-based; conditions: read-out: IC50 values
Description: (§1) KG 2013 and KG 2015 screened against 5 bacteria strains: Pseudomonas Putida (CP1), Pseudomonas Putida (KT2440), Escherichia Coli, Bacillus Subtilis, and Pseudomonas Fluorescens. KG 1043 screened against 4 strains Pseudomonas Putida (CP1), Pseudomonas Putida (KT2440), Escherichia Coli, and Pseudomonas Fluorescens. All 3 pyridinium ionic liquids have low antimicrobial toxicity (IC50>1 mM).

Escherichia Coli = assay: as above; format: cell-based; conditions: read-out: IC50 values
Description: as §1

[14] = tested on: Pseudomonas Putida (KT2440); assay: as above; format: cell-based; conditions: read-out: IC50 values
Description: as §1

Pseudomonas Fluorescens = assay: as above; format: cell-based; conditions: read-out: IC50 values
Description: as §1

Bacillus Subtilis = assay: as above; format: cell-based; conditions: read-out: IC50 values
Description: as §1

CCCCCCCCOS(=O)(=O)[O-].CCCCCOC(=O)C(OC(=O)Cn1cc[n+](C)c1)c1ccccc1 (centres unmarked) [KG304, RS-3-methyl-1-[1-(pentoxycarbonyl)-1-phenylmethoxycarbonylmethyl]imidazolium octyl sulphate]
MIC/IC80 ([1]; 24 h): >1000 µmol/L
MIC/IC80 ([1]; 48 h): >1000 µmol/L
MIC/IC80 ([2]; 24 h): >1000 µmol/L
MIC/IC80 ([2]; 48 h): >1000 µmol/L
toxicity / inhibition of the growth of fungi and bacteria (fungi and bacteria): inhibit the growth of fungi and bacteria
MIC/IC80 ([3]; CA2, 24 h): >1000 µmol/L
MIC/IC80 ([3]; CA2, 48 h): >1000 µmol/L
MIC/IC80 ([4]; 24 h): >1000 µmol/L
MIC/IC80 ([4]; 48 h): >1000 µmol/L
MIC/IC80 (Candida tropicalis 156; 24 h): >1000 µmol/L
MIC/IC80 (Candida tropicalis 156; 48 h): >1000 µmol/L
MIC/IC80 ([5]; CA1, 24 h): 1000 µmol/L
MIC/IC80 ([5]; CA1, 48 h): 1000 µmol/L
MIC/IC80 (Candida krusei E28; CK2, 24 h): >1000 µmol/L
MIC/IC80 (Candida krusei E28; CK2, 48 h): >1000 µmol/L
MIC/IC80 ([6]; 24 h): 500 µmol/L
MIC/IC80 ([6]; 48 h): >1000 µmol/L
MIC/IC80 (Escherichia coli CCM4517; 24 h): >1000 µmol/L
MIC/IC80 (Escherichia coli CCM4517; 48 h): >1000 µmol/L
MIC/IC80 ([7]; 24 h): >1000 µmol/L
MIC/IC80 ([7]; 48 h): >1000 µmol/L
MIC/IC80 ([8]; 24 h): 1000 µmol/L
MIC/IC80 ([8]; 48 h): >1000 µmol/L
MIC/IC80 (Candida krusei ATCC 6258; CK1, 24 h): 1000 µmol/L
MIC/IC80 (Candida krusei ATCC 6258; CK1, 48 h): >1000 µmol/L
MIC/IC80 (Absidia corymbifera 272; 24 h): 1000 µmol/L
MIC/IC80 (Absidia corymbifera 272; 48 h): 1000 µmol/L
MIC/IC80 ([9]; 72 h): 250 µmol/L
MIC/IC80 ([9]; 120 h): 500 µmol/L
MIC/IC80 ([10]; 24 h): 1000 µmol/L
MIC/IC80 ([10]; 48 h): 1000 µmol/L
MIC/IC80 ([11]; 24 h): >1000 µmol/L
MIC/IC80 ([11]; 48 h): >1000 µmol/L
MIC/IC80 ([12]; 24 h): >1000 µmol/L
MIC/IC80 ([12]; 48 h): >1000 µmol/L
MIC/IC80 (Candida glabrata 20/l; 24 h): >1000 µmol/L
MIC/IC80 (Candida glabrata 20/l; 48 h): >1000 µmol/L
MIC/IC80 ([13]; 24 h): >1000 µmol/L
MIC/IC80 ([13]; 48 h): >1000 µmol/L

CCCCOC(=O)C(OC(=O)C[n+]1ccccc1)c1ccc2c(c1)OCO2 (centres unmarked) [KG 1043, RS-[1-(butoxycarbonyl)-1-(3,4-methylenedioxyphenyl)methoxycarbonylmethyl]pyridinium bromide]
IC50 (Pseudomonas Putida (CP1); P. Putida (CP1)): > 1 mM
IC50 (Escherichia Coli; E. Coli): > 1 mM
IC50 ([14]; P. Putida (KT2440)): > 1 mM
IC50 (Pseudomonas Fluorescens; P. Fluorescens): > 1 mM

COC(=O)C(c1ccc(OC)c(OC)c1)[n+]1ccccc1 (centres unmarked) [KG 2013, RS-2-(3,4-dimethoxyphenyl)-2-(pyridinium) methyl acetate, chloride salt]
IC50 (Bacillus Subtilis; Bacillus subtilis): > 1 mM
IC50 (Pseudomonas Putida (CP1); Pseudomonas putida): > 1 mM
IC50 (Escherichia Coli; Escherichia coli): > 1 mM
IC50 ([14]; Pseudomonas putida): > 1 mM
IC50 (Pseudomonas Fluorescens; Pseudomonas fluorescens): > 1 mM

COC(=O)C(c1ccc2c(c1)OCO2)[n+]1ccccc1 (centres unmarked) [KG 2015, RS-2-(3,4-methylendioxyphenyl)-2-(pyridinium) methyl acetate, bromide salt]
IC50 (Bacillus Subtilis; B. Subtilis): > 1 mM
IC50 (Pseudomonas Putida (CP1); P. Putida (CP1)): > 1 mM
IC50 (Escherichia Coli; E. Coli): > 1 mM
IC50 ([14]; P. Putida (KT2440)): > 1 mM
IC50 (Pseudomonas Fluorescens; P. Fluorescens): > 1 mM

R-3-methyl-1-[1-(pentoxycarbonyl)-1-phenylmethoxycarbonylmethyl]imidazolium octyl sulphate [KG303]
MIC/IC80 ([1]; 24 h): >1000 µmol/L
MIC/IC80 ([1]; 48 h): >1000 µmol/L
MIC/IC80 ([2]; 24 h): >1000 µmol/L
MIC/IC80 ([2]; 48 h): >1000 µmol/L
toxicity / inhibition of the growth of fungi and bacteria (fungi and bacteria): inhibit the growth of fungi and bacteria
MIC/IC80 ([3]; CA2, 24 h): 1000 µmol/L
MIC/IC80 ([3]; CA2, 48 h): >1000 µmol/L
MIC/IC80 ([4]; 24 h): >1000 µmol/L
MIC/IC80 ([4]; 48 h): >1000 µmol/L
MIC/IC80 (Candida tropicalis 156; 24 h): >1000 µmol/L
MIC/IC80 (Candida tropicalis 156; 48 h): >1000 µmol/L
MIC/IC80 ([5]; CA1, 24 h): 500 µmol/L
MIC/IC80 ([5]; CA1, 48 h): >1000 µmol/L
MIC/IC80 (Candida krusei E28; CK2, 24 h): 1000 µmol/L
MIC/IC80 (Candida krusei E28; CK2, 48 h): >1000 µmol/L
MIC/IC80 ([6]; 24 h): 1000 µmol/L
MIC/IC80 ([6]; 48 h): 1000 µmol/L
MIC/IC80 (Escherichia coli CCM4517; 24 h): >1000 µmol/L
MIC/IC80 (Escherichia coli CCM4517; 48 h): >1000 µmol/L
MIC/IC80 ([7]; 24 h): 1000 µmol/L
MIC/IC80 ([7]; 48 h): >1000 µmol/L
MIC/IC80 ([8]; 24 h): 500 µmol/L
MIC/IC80 ([8]; 48 h): 1000 µmol/L
MIC/IC80 (Candida krusei ATCC 6258; CK1, 24 h): 1000 µmol/L
MIC/IC80 (Candida krusei ATCC 6258; CK1, 48 h): >1000 µmol/L
MIC/IC80 (Absidia corymbifera 272; 24 h): 1000 µmol/L
MIC/IC80 (Absidia corymbifera 272; 48 h): 1000 µmol/L
MIC/IC80 ([9]; 72 h): 250 µmol/L
MIC/IC80 ([9]; 120 h): 500 µmol/L
MIC/IC80 ([10]; 24 h): 1000 µmol/L
MIC/IC80 ([10]; 48 h): 1000 µmol/L
MIC/IC80 ([11]; 24 h): >1000 µmol/L
MIC/IC80 ([11]; 48 h): >1000 µmol/L
MIC/IC80 ([12]; 24 h): >1000 µmol/L
MIC/IC80 ([12]; 48 h): >1000 µmol/L
MIC/IC80 (Candida glabrata 20/l; 24 h): >1000 µmol/L
MIC/IC80 (Candida glabrata 20/l; 48 h): >1000 µmol/L
MIC/IC80 ([13]; 24 h): >1000 µmol/L
MIC/IC80 ([13]; 48 h): >1000 µmol/L
